Data from EP3069727B1, “PHARMACEUTICAL COMPOSITION FOR CANCER PREVENTION AND TREATMENT CONTAINING PEPTIDE ORIGINATED FROM C12ORF59 PROTEIN AS AN ACTIVE INGREDIENT” (Korea Research Institute of Bioscience and Biotechnology, priority 2015, dated 2018).
Residues, ends and D or L forms follow the SMILES beside them.

Key:
SW480sub cells = assay: Invasion assay (Matrigel-coated transwell, collagen type I chemoattractant) with peptide-treated SW480sub cells; assay type: cell-based; settings: for invasion reduced compared to the vehicle control: peptide 50 µM
Experimental: SW480sub was subpopulation of SW480 having high in vitro invasion and in vivo metastasis ability. The effect of each peptide on colorectal cancer cell invasion was analyzed using the said SW480sub. SW480sub cells were mixed with each peptide, followed by pre-incubation for 30 minutes.
(§1) Particularly, the porous membrane of 24-well transwell plate (8 µm pore size; Costar, USA) was coated with 100 µℓ of matrigel (BD Biosciences, USA) diluted in serum free medium at the concentration of 250 µg/mℓ, which stood at room temperature for 1 hour for fixing. The lower part of the transwell plate was coated with 100 µℓ of collagen type I (Sigma) at the concentration of 20 µg/mℓ. The said collagen type I was used as a chemoattractant. 1×10^4 cells resuspended in serum free medium were distributed in the upper chamber of the said 24-well transwell plate, followed by culture at 37°C with 5% CO2 for 48 hours, during which the cells were induced to migrate from the upper chamber to the lower chamber. The non-migrated cells were eliminated from the surface of the upper chamber. […] The excessive crystal violet solution was washed off with distilled water. The selected area (×100) was photographed. The number of the cells migrated was counted from 5 different selected areas. Then, mean value and standard error were obtained.

SW480 cells [1] = assay: Invasion assay with peptide-treated SW480 cells; assay type: cell-based; settings: concentration not given
Experimental: as §1
SW480 colorectal cancer cells were treated with peptides originated from C12orf59, and effects of the peptids on invasion of the cells were analyzed.

colorectal cancer cells = assay: Cellular survival rate of colorectal cancer cells measured by absorbance; assay type: cell-based; settings: as in Example <3-2>
Experimental: (§2) Particularly, 100 µℓ of poly-HEMA (Sigma) at the concentration of 12 mg/mℓ was loaded in 96-well plate, which stood in clean bench for 1 day, followed by drying. On the next day, the plate was coated with Poly-HEMA once again. Cells were distributed in the poly-HEMA coated plate by 100 µℓ/well (1×10^4 cells/well). At that time, serum-free medium was used. 6 days later, 10 µℓ of CCK-8 reagent (Dojindo cat. CK04-13) was added to each well, followed by reaction for 3 hours. Then, OD450 was measured.
In particular, a cellular survival rate was measured using absorbance in the same manner as in Example <3-2>.

SW480 cells [2] = assay: Cell survivability under anchorage independent condition (poly-HEMA plate, CCK-8, OD450); assay type: cell-based; settings: peptide 100 µg/mℓ, 6 days
Experimental: 6 days later, cell survivability was measured by colorimetric technique under the anchorage independent condition.
as §2

[3] = test system: C8161 (human melanoma) cell line; assay: Invasion assay with C8161 cells (Matrigel-coated Transwell); assay type: cell-based; settings: 24 h
Experimental: Specifically, C8161 (human melanoma) cell line was cultured in DMEM containing 10% FBS, penicillin-streptomycin, L-glutamine, sodium pyruvate and glucose. C8161 cells (1 x 10^4) in the presence of the peptide were plated in serum-free medium on 24-well Transwell inserts (8 µm pore size; Costar, USA) coated with 25 µg of […] (BD Biosciences, USA). The underside of the insert was coated with 100 µℓ of collagen type I (Sigma) at the concentration of 5 µg/mℓ. […] The number of cells that had invaded was counted in five representative fields per insert. Then, mean value and standard deviation were obtained.

[4] = test system: C8161 (human melanoma) cells; assay: In vivo experimental metastasis mouse model; design: species or system Nude mice (BALB/c-nude); settings: 200µg/100µℓ PBS intravenously twice per week (total 7 times); 4 weeks; vs PBS
Experimental: In vivo therapeutic efficacy of A_intact peptide was evaluated using experimental metastasis mouse model. The in vivo experimental metastasis model was constructed as described below.
Nude mice (BALB/c-nude, 6 weeks old, female) were obtained from Charles River Japan (Japan). C8161 (human melanoma) cells (8 x 10^5 cells in 100 µℓ PBS per mouse) were injected into the tail vein. Two days later, mice were randomized into control and treatment groups (n=5 per group) . Modified A_intact peptide (200µg/100µℓ PBS) or A_intact-Fc fusion protein (100µg/100µℓ PBS) were intravenously injected into each mouse twice per week (total 7 times). As a negative control, PBS (100µℓ/mouse) was injected. All animals were killed at 4 weeks after injection of cancer cells. Lung and liver were excised and fixed in 10% formalin for 24 h. Metastatic foci on the surface of lung and liver were counted.

## SWRPQPCCISSCCLT [B_C-term1]
SW480sub cells
  invasion reduced compared to the vehicle control: 73%
SW480 cells [1]
  invasion of cells reduced by: 45%
Colorectal cancer cells
  effect on the survival of colorectal cancer cells: inhibitory effects on the survival of colorectal cancer cells in a concentration-dependent manner

## SWRPQPCCISSCCLTTDWVH [B_intact, fragment of C12orf59 isoform 2 extracellular domain, 20 amino acids]
SW480sub cells; peptide 43 µM
  invasion rate reduced compared to the control: 29%
SW480sub cells; peptide 100 µg/mℓ, 48 hours
  colorectal cancer cell invasion reduced by: 90%
SW480 cells [1]
  invasion of cells reduced by: 47%
SW480 cells [2]
  cell survivability reduced by: 90%
[3]; 30 µg/mℓ
  C8161 invasion reduced by: 48%
[3]; 100 µg/mℓ
  C8161 invasion reduced by: 70%

## CC(=O)N[C@@H](CCC(=O)O)C(=O)N[C@@H](CCC(=O)O)C(=O)N[C@@H](CC(N)=O)C(=O)N[C@@H](CS)C(=O)NCC(=O)N[C@@H](CC(N)=O)C(=O)N1CCC[C@H]1C(=O)N[C@@H](CCC(=O)O)C(=O)N[C@@H](Cc1c[nH]cn1)C(=O)N[C@@H](CS)C(=O)N[C@@H](CC(C)C)C(=O)N[C@H](C(=O)N[C@H](C(=O)N[C@@H](CC(=O)O)C(=O)N[C@@H](Cc1c[nH]c2ccccc12)C(=O)N[C@H](C(=O)N[C@@H](Cc1c[nH]cn1)C(N)=O)C(C)C)[C@@H](C)O)[C@@H](C)O [Modified A_intact peptide] (Ac-EENCGNPEHCLTTDWVH-NH2)
[4]
  metastasis to the liver (metastatic nodules): inhibited
  metastasis to the lung (metastatic nodules): inhibited

## PCCISSCCLT [B_Cen]
SW480sub cells
  invasion reduced compared to the vehicle control: 33%

## PCCISSCCLTTDWVH [B_N-term]
SW480 cells [1]
  invasion of cells reduced by: 55%
Colorectal cancer cells
  effect on the survival of colorectal cancer cells: inhibitory effects on the survival of colorectal cancer cells in a concentration-dependent manner
